Here are results for 1 compound from US7915198B2, “Aqueous solution of non-colloidal silicic acid and boric acid” (Sabalo, N.V., priority 2002, dated 2011).

The test system of one data set is Phytophthora infestan. The class given is in vivo, potato plants (strain Bintje). The method, then: (§1) Solutions of boric acid in water were prepared containing different concentrations of boric acid: 1%, 0.1%, 0.03%, 0.01%, 0.005%, 0.0003% and 0.0001% (W/V). Sodium silicate (10% Si) was diluted tenfold in water and further 1000 times diluted in the solutions or in water with pH 4.5 after dilution, resulting in a final silicon concentration of 0.0010 wt. % (or 10 μg/ml Si)
(§2) All solutions were filtered on a 0.1μ membrane filter. […] The solutions were used instantaneously. A potato garden was used to test the compounds against infection with Phytophthora infestan: 20 m^2 culture were used for testing and each m^2 contained 6 potato plants (strain Bintje) of two months old. Two times a week plant leaves were sprayed with the different solutions (about 10 liters/are). Four square meters were used as placebo.

Data set [1] has as its system potato plants (strain Bintje). The method, then: as §1, §2

As to `OB(O)O` [boric acid], in the data set with Phytophthora infestan (1%, 0.1% and 0.03% boric acid), the antifungal effect entry is on record as “no antifungal effect”. In addition, the fungal infection entry in the data set on Phytophthora infestan (From 0.003% boric acid on) was “fungal infection decreased”. In addition, the “toxic reactions (necrotic effects on leaves such as black spots, holes)” value in data set [1] (1%, 0.1% and 0.03% boric acid, after 1 week treatment) is “toxic reactions”. Besides, in data set [1] (From 0.003% boric acid on), the “strength of plant leaves” value is on record as “plant leaves were stronger”.
